{"source": "PubChem BioAssay (NCI)", "assay_in_all_cases": "inhibition of tumour cell growth, NCI panel, 48 h", "key": {"[1]": {"system": "NCI-H23 lung"}, "[2]": {"system": "HCT-15 colon"}, "[3]": {"system": "LOX IMVI melanoma"}, "[4]": {"system": "786-0 renal"}, "[5]": {"system": "SR leukemia"}, "[6]": {"system": "K-562 leukemia"}, "[7]": {"system": "PC-3 prostate"}, "[8]": {"system": "UO-31 renal"}, "[9]": {"system": "OVCAR-8 ovarian"}, "[10]": {"system": "SNB-19 CNS"}, "[11]": {"system": "NCI/ADR-RES ovarian"}, "[12]": {"system": "MCF7 breast"}, "[13]": {"system": "CCRF-CEM leukemia"}, "[14]": {"system": "RXF 393 renal"}, "[15]": {"system": "BT-549 breast"}, "[16]": {"system": "A498 renal"}, "[17]": {"system": "MDA-MB-435"}, "[18]": {"system": "MDA-N"}, "[19]": {"system": "M14 melanoma"}, "[20]": {"system": "OVCAR-3 ovarian"}, "[21]": {"system": "NCI-H460 lung"}, "[22]": {"system": "MALME-3M melanoma"}, "[23]": {"system": "SF-539 CNS"}, "[24]": {"system": "HT29 colon"}, "[25]": {"system": "NCI-H226 lung"}, "[26]": {"system": "SW-620 colon"}, "[27]": {"system": "HOP-62 NSCLC"}, "[28]": {"system": "TK-10 renal"}, "[29]": {"system": "HS 578T breast"}, "[30]": {"system": "RPMI-8226 leukemia"}, "[31]": {"system": "HCT-116 colon"}, "[32]": {"system": "SNB-75 CNS"}, "[33]": {"system": "SK-MEL-28 melanoma"}, "[34]": {"system": "KM12 colon"}, "[35]": {"system": "IGROV1 ovarian"}, "[36]": {"system": "SK-MEL-2 melanoma"}, "[37]": {"system": "A549 NSCLC"}, "[38]": {"system": "CAKI-1 renal"}, "[39]": {"system": "OVCAR-5 ovarian"}, "[40]": {"system": "SN12C renal"}, "[41]": {"system": "MOLT-4 leukemia"}, "[42]": {"system": "HL-60(TB) leukemia"}, "[43]": {"system": "DU-145 prostate"}, "[44]": {"system": "U251 CNS"}, "[45]": {"system": "UACC-257 melanoma"}, "[46]": {"system": "COLO 205 colon"}, "[47]": {"system": "UACC-62 melanoma"}, "[48]": {"system": "SK-OV-3 ovarian"}, "[49]": {"system": "SF-295 CNS"}, "[50]": {"system": "SF-268 CNS"}, "[51]": {"system": "SK-MEL-5 melanoma"}, "[52]": {"system": "OVCAR-4 ovarian"}, "[53]": {"system": "MDA-MB-231 breast"}, "[54]": {"system": "NCI-H522 lung"}, "[55]": {"system": "EKVX NSCLC"}, "[56]": {"system": "HOP-92 NSCLC"}, "[57]": {"system": "T-47D breast"}, "[58]": {"system": "ACHN renal"}}, "note": "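Briefly, cells in 96-well plates were exposed to five compound concentrations for 48 h, and endpoints were estimated by linear interpolation. TGI is the concentration that stops growth completely.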", "data": [{"compound": "COc1ccccc1Cn1c2c(c3cc(O)ccc31)C(=O)c1ccccc1C2=O", "values": [{"measurement": "TGI", "setting": "[1]", "value": 95.8, "unit": "µM"}, {"measurement": "TGI", "setting": "[2]", "value": "> 100", "unit": "µM"}, {"measurement": "TGI", "setting": "[3]", "value": "> 100", "unit": "µM"}, {"measurement": "TGI", "setting": "[4]", "value": 45.5, "unit": "µM"}, {"measurement": "TGI", "setting": "[5]", "value": "> 100", "unit": "µM"}, {"measurement": "TGI", "setting": "[6]", "value": "> 100", "unit": "µM"}, {"measurement": "TGI", "setting": "[7]", "value": 53.5, "unit": "µM"}, {"measurement": "TGI", "setting": "[8]", "value": "> 100", "unit": "µM"}, {"measurement": "TGI", "setting": "[9]", "value": 61.9, "unit": "µM"}, {"measurement": "TGI", "setting": "[10]", "value": "> 100", "unit": "µM"}, {"measurement": "TGI", "setting": "[11]", "value": 40.4, "unit": "µM"}, {"measurement": "TGI", "setting": "[12]", "value": 96.7, "unit": "µM"}, {"measurement": "TGI", "setting": "[13]", "value": "> 100", "unit": "µM"}, {"measurement": "TGI", "setting": "[14]", "value": 14.3, "unit": "µM"}, {"measurement": "TGI", "setting": "[15]", "value": "> 100", "unit": "µM"}, {"measurement": "TGI", "setting": "[16]", "value": "> 100", "unit": "µM"}, {"measurement": "TGI", "setting": "[17]", "value": "> 100", "unit": "µM"}, {"measurement": "TGI", "setting": "[18]", "value": "> 100", "unit": "µM"}, {"measurement": "TGI", "setting": "[19]", "value": "> 100", "unit": "µM"}, {"measurement": "TGI", "setting": "[20]", "value": "> 100", "unit": "µM"}, {"measurement": "TGI", "setting": "[21]", "value": "> 100", "unit": "µM"}, {"measurement": "TGI", "setting": "[22]", "value": "> 100", "unit": "µM"}, {"measurement": "TGI", "setting": "[23]", "value": 57.6, "unit": "µM"}, {"measurement": "TGI", "setting": "[24]", "value": "> 100", "unit": "µM"}, {"measurement": "TGI", "setting": "[25]", "value": 79, "unit": "µM"}, {"measurement": "TGI", "setting": "[26]", "value": "> 100", "unit": "µM"}, {"measurement": "TGI", "setting": "[27]", "value": "> 100", "unit": "µM"}, {"measurement": "TGI", "setting": "[28]", "value": "> 100", "unit": "µM"}, {"measurement": "TGI", "setting": "[29]", "value": "> 100", "unit": "µM"}, {"measurement": "TGI", "setting": "[30]", "value": 45.7, "unit": "µM"}, {"measurement": "TGI", "setting": "[31]", "value": "> 100", "unit": "µM"}, {"measurement": "TGI", "setting": "[32]", "value": 58.8, "unit": "µM"}, {"measurement": "TGI", "setting": "[33]", "value": "> 100", "unit": "µM"}, {"measurement": "TGI", "setting": "[34]", "value": "> 100", "unit": "µM"}, {"measurement": "TGI", "setting": "[35]", "value": "> 100", "unit": "µM"}, {"measurement": "TGI", "setting": "[36]", "value": "> 100", "unit": "µM"}, {"measurement": "TGI", "setting": "[37]", "value": "> 100", "unit": "µM"}, {"measurement": "TGI", "setting": "[38]", "value": 69.7, "unit": "µM"}, {"measurement": "TGI", "setting": "[39]", "value": 34.1, "unit": "µM"}, {"measurement": "TGI", "setting": "[40]", "value": "> 100", "unit": "µM"}, {"measurement": "TGI", "setting": "[41]", "value": "> 100", "unit": "µM"}, {"measurement": "TGI", "setting": "[42]", "value": "> 100", "unit": "µM"}, {"measurement": "TGI", "setting": "[43]", "value": "> 100", "unit": "µM"}, {"measurement": "TGI", "setting": "[44]", "value": 64.9, "unit": "µM"}, {"measurement": "TGI", "setting": "[45]", "value": "> 100", "unit": "µM"}, {"measurement": "TGI", "setting": "[46]", "value": "> 100", "unit": "µM"}, {"measurement": "TGI", "setting": "[47]", "value": 82.9, "unit": "µM"}, {"measurement": "TGI", "setting": "[48]", "value": 10, "unit": "µM"}, {"measurement": "TGI", "setting": "[49]", "value": 42.2, "unit": "µM"}, {"measurement": "TGI", "setting": "[50]", "value": 86.1, "unit": "µM"}, {"measurement": "TGI", "setting": "[51]", "value": "> 100", "unit": "µM"}, {"measurement": "TGI", "setting": "[52]", "value": 12, "unit": "µM"}, {"measurement": "TGI", "setting": "[53]", "value": 38.2, "unit": "µM"}]}, {"compound": "CC(C)NC(=O)OCc1c(COC(=O)NC(C)C)n(C)c2c1ccc1cc(Cl)c(Cl)cc12", "values": [{"measurement": "TGI", "setting": "[1]", "value": 31.1, "unit": "µM"}, {"measurement": "TGI", "setting": "[2]", "value": 28.7, "unit": "µM"}, {"measurement": "TGI", "setting": "[3]", "value": 20.9, "unit": "µM"}, {"measurement": "TGI", "setting": "[4]", "value": 20.5, "unit": "µM"}, {"measurement": "TGI", "setting": "[5]", "value": 30.6, "unit": "µM"}, {"measurement": "TGI", "setting": "[6]", "value": "> 100", "unit": "µM"}, {"measurement": "TGI", "setting": "[7]", "value": 29, "unit": "µM"}, {"measurement": "TGI", "setting": "[8]", "value": 32.8, "unit": "µM"}, {"measurement": "TGI", "setting": "[54]", "value": 13.1, "unit": "µM"}, {"measurement": "TGI", "setting": "[9]", "value": 23.8, "unit": "µM"}, {"measurement": "TGI", "setting": "[10]", "value": 26.6, "unit": "µM"}, {"measurement": "TGI", "setting": "[11]", "value": 36.8, "unit": "µM"}, {"measurement": "TGI", "setting": "[12]", "value": 14.9, "unit": "µM"}, {"measurement": "TGI", "setting": "[13]", "value": "> 100", "unit": "µM"}, {"measurement": "TGI", "setting": "[14]", "value": 25, "unit": "µM"}, {"measurement": "TGI", "setting": "[15]", "value": 30.7, "unit": "µM"}, {"measurement": "TGI", "setting": "[16]", "value": 4.85, "unit": "µM"}, {"measurement": "TGI", "setting": "[17]", "value": 19.5, "unit": "µM"}, {"measurement": "TGI", "setting": "[18]", "value": 26.5, "unit": "µM"}, {"measurement": "TGI", "setting": "[19]", "value": 29.2, "unit": "µM"}, {"measurement": "TGI", "setting": "[20]", "value": 31.1, "unit": "µM"}, {"measurement": "TGI", "setting": "[21]", "value": 16.3, "unit": "µM"}, {"measurement": "TGI", "setting": "[22]", "value": 22.7, "unit": "µM"}, {"measurement": "TGI", "setting": "[23]", "value": 27.1, "unit": "µM"}, {"measurement": "TGI", "setting": "[24]", "value": 29.3, "unit": "µM"}, {"measurement": "TGI", "setting": "[25]", "value": 17.3, "unit": "µM"}, {"measurement": "TGI", "setting": "[26]", "value": 23.5, "unit": "µM"}, {"measurement": "TGI", "setting": "[27]", "value": 28, "unit": "µM"}, {"measurement": "TGI", "setting": "[28]", "value": 19.4, "unit": "µM"}, {"measurement": "TGI", "setting": "[29]", "value": 68.9, "unit": "µM"}, {"measurement": "TGI", "setting": "[30]", "value": 39.5, "unit": "µM"}, {"measurement": "TGI", "setting": "[31]", "value": 24, "unit": "µM"}, {"measurement": "TGI", "setting": "[32]", "value": 28.4, "unit": "µM"}, {"measurement": "TGI", "setting": "[35]", "value": 22.2, "unit": "µM"}, {"measurement": "TGI", "setting": "[36]", "value": 32.2, "unit": "µM"}, {"measurement": "TGI", "setting": "[37]", "value": 95.7, "unit": "µM"}, {"measurement": "TGI", "setting": "[38]", "value": 12.6, "unit": "µM"}, {"measurement": "TGI", "setting": "[39]", "value": 29.4, "unit": "µM"}, {"measurement": "TGI", "setting": "[41]", "value": 27.9, "unit": "µM"}, {"measurement": "TGI", "setting": "[55]", "value": 41.9, "unit": "µM"}, {"measurement": "TGI", "setting": "[44]", "value": 29.3, "unit": "µM"}, {"measurement": "TGI", "setting": "[45]", "value": 30.6, "unit": "µM"}, {"measurement": "TGI", "setting": "[46]", "value": 22.8, "unit": "µM"}, {"measurement": "TGI", "setting": "[56]", "value": 24.3, "unit": "µM"}, {"measurement": "TGI", "setting": "[57]", "value": 18.8, "unit": "µM"}, {"measurement": "TGI", "setting": "[47]", "value": 28, "unit": "µM"}, {"measurement": "TGI", "setting": "[48]", "value": 63.3, "unit": "µM"}, {"measurement": "TGI", "setting": "[49]", "value": 30.8, "unit": "µM"}, {"measurement": "TGI", "setting": "[50]", "value": 29.4, "unit": "µM"}, {"measurement": "TGI", "setting": "[51]", "value": 30.1, "unit": "µM"}, {"measurement": "TGI", "setting": "[52]", "value": 54.8, "unit": "µM"}, {"measurement": "TGI", "setting": "[58]", "value": 24, "unit": "µM"}, {"measurement": "TGI", "setting": "[53]", "value": 25.3, "unit": "µM"}]}]}
